This note sets out measurements from publication PMC8904520, “Characterization of a small-molecule inhibitor targeting NEMO/IKKβ to suppress colorectal cancer growth” (Signal Transduction and Targeted Therapy, 2022).

Test [1] concerns the target T1, NEMO/IKKβ complex (MBP-IKKβ (701–745) / GST-NEMO (1–196)) (Homo sapiens, UniProt Q9Y6K9).
T1 construct: made in house; host or cells: E. coli BL21(DE3)
The experiment in a line: SPR competition assay of NEMO/IKKβ binding. As for the experimental part: MBP-IKKβ was immobilized on the surface of the CM5 chip using the amine-coupling approach at a flow rate of 10 μL/min in 10 mM sodium acetate buffer (pH 5.0). The sensor surface was activated with a 7 min injection of a mixture comprising 50 mM N-hydroxysuccinimide (NHS) and 200 mM 1-ethyl-3-(3- dimethylaminopropyl) carbodiimide (EDC). Then, 33 μg/mL of IKKβ was injected to reach the target level of 500 RU and the surface was blocked with 1 M ethanolamine, pH 8.5. A series of concentrations of NEMO or SHK were injected into the flow system and analyzed for 90 or 120 s, followed by dissociation for 90 or 600 s. All binding analyses was performed in phosphate-buffered saline (PBS, pH 7.4) with 0.05% (v/v) Tween-20 at 25 °C. Prior to analysis, double reference subtractions were made to eliminate bulk refractive index changes, injection noise, and data drift. The binding affinity was determined by fitting to a Langmuir 1:1 binding model in the Biacore Evaluation software (GE Healthcare).
According to the instructions from GE, an anti-GST antibody was immobilized onto the CM5 chip surface. The sensor surface was activated with NHS and EDC, after which 15 μg/mL of anti-GST antibody was injected for 420 s and the surface was blocked with 1 M ethanolamine, pH 8.5. […] For each analyte, 50 μg/mL of GST-G was captured for 60 s and 10 mM glycine-HCl (pH 2.1) was used to regenerate the surface. MBP-B was analyzed with 120 s injection and 120 s dissociation. A series of SHK concentrations was analyzed with 90 s injection and 90 s dissociation.
For the competition assay, we tried two methods with MBP-IKKβ and GST-NEMO immobilized separately. Mixtures including series concentrations of SHK and 1 μM GST-NEMO were tested on MBP-IKKβ-immobilized surface; while other mixtures including series concentrations of SHK and 0.5 μM MBP-IKKβ were tested on GST-NEMO-captured surface. […] By recording the binding responses at 120 s, the inhibition effects of SHK were calculated to determine the IC50.

Another test has as its target T2, MBP-IKKβ (701–745) (Homo sapiens, UniProt O14920).
T2 construct: made in house; host or cells: E. coli BL21(DE3)
T2 sequence (O14920 701-745): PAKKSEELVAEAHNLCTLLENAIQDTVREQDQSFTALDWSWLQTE
Briefly: MST binding assay to IKKβ.

In a further test the target is T3, GST-NEMO (1–196) (Homo sapiens, UniProt Q9Y6K9).
T3 construct: assays using MBP-IKKβ (701–745) and GST-NEMO (1–196) peptides; made in house; host or cells: E. coli BL21(DE3)
The experiment in a line: MST binding assay to NEMO.

Test [2] addresses T4, NEMO/IKKβ interaction (GST-NEMO1–196 / biotinylated IKKβ peptide) (Homo sapiens, UniProt Q9Y6K9).
T4 construct: made in house; host or cells: E. coli BL21(DE3) (GST-NEMO)
The experiment in a line: FRET assay of NEMO/IKKβ binding. As to conditions: 10 nM GST-NEMO1–196, 200 nM biotinylated IKKβ peptide, read-out: IC50 for impairing NEMO/IKKβ interaction. Here is the method:
A FRET assay was used to detect the effects of SHK on NEMO/IKKβ binding. 10 nM GST-NEMO1–196 was bound to 200 nM biotinylated IKKβ peptide in binding buffer (50 Mm Tris-HCl, 150 mM NaCl, and 1x cocktail, pH 7.4), and increasing amounts of SHK were titrated into the mixture, incubated for 30 min at room temperature. The detection agent (50 nM streptavidin-conjugated APC and 10 nM LANCE^TM Europium-W1024 labeled anti-GST, Perkin Elmer) was incubated for 30 min at room temperature, and the FRET signal was read on a multifunctional microplate reader (BioTek Synergy NEO).

For a further test, the system named is LoVo and RKO cells. Briefly: Colony formation assay. It counts as cell-based, human. As for the experimental part: Detached cells (1 × 10^3 per well) were seeded into six-well plates containing 2 mL of growth medium with 10% FBS and cultured for 24 h. Then, the medium was removed and the cells were treated with various concentrations of SHK. After 24 h, the cells were washed with PBS and supplemented with fresh growth medium. The cells were routinely incubated for about two weeks until colonies were large enough to be visualized. Then, the colonies were stained with 0.1% crystal violet and counted.

For test [3], the system named is LoVo/IKKβmut (D738A/W739A/W741A) xenograft. The experiment in a line: LoVo/IKKβmut xenograft mouse model. It counts as in vivo, athymic nude mice. Also on record: dose or concentration left out as unconfirmed. As for the experimental part:
Female athymic nude mice aged 5 weeks were purchased from Beijing Vital River Laboratory Animal Technology Co., Ltd., and kept in the SPF Laboratory Animal Center of Dalian Medical University (Dalian, China). All animals were given free access to sterilized food and water and were habituated for 7 days before the experiments. All procedures were carried out in strict accordance with the recommendations established by the Animal Care and Ethics Committee of Dalian Medical University as well as the guidelines promulgated in the U.S. National Institutes of Health Guide for the Care and Use of Laboratory Animals. LoVo cells (LoVo/wt and LoVo/ mut, 5×10^6 in 100 μL PBS) were injected subcutaneously near the axillary fossa of each nude mouse. Two weeks later, when the formed tumor reached 3-4mm, the animals were divided randomly into three groups with 5 mice in each group. […] The tumors were measured with a caliper once every two days, and the tumor volume was calculated using the formula V = 1/2 (width^2 × length). The body weight of the animals was also recorded. After treatment with SHK for 15 days, all experimental mice were sacrificed and the tumors from each mouse were excised and their weight was measured. […] The stained samples were examined under a Leica DM 4000B fluorescence microscope equipped with a digital camera. […]

Several values for one entry are separate records, joined by “and”; a condition that tells them apart may be missing. Identical values can stand only once. Like-named read-outs stand apart in the source and are kept apart here.

T1 sequence (Q9Y6K9 1-196, one chain of several): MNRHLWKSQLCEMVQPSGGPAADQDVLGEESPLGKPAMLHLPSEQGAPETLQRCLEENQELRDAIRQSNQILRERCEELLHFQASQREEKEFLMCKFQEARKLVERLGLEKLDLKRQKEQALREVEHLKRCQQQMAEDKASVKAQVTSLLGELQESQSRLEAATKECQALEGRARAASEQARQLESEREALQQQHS
T4 sequence (Q9Y6K9 1-196): as the sequence (Q9Y6K9 1-196, one chain of several) above
T3 sequence (Q9Y6K9 1-196): as the sequence (Q9Y6K9 1-196, one chain of several) above

With `CC(C)=CC[C@@H](O)C1=CC(=O)c2c(O)ccc(O)c2C1=O` [SHK, Shikonin], the IC50 in test [1] (IC50 for impairing binding of GST-NEMO (1–196) to MBP-IKKβ (701–745), MBP-IKKβ immobilized, SHK pre-incubated with 1 μM GST-NEMO for 30 min) is 176 ± 26.4 nM; in test [1] (IC50 for inhibiting binding of MBP-IKKβ (701–745) to GST-NEMO (1–196), GST-NEMO immobilized, SHK pre-incubated with 0.5 μM MBP-IKKβ for 30 min) it was 171 ± 35.6 nM; in test [1] (summary value as quoted in abstract, introduction, discussion, read-out: IC50 for destabilizing / inhibiting NEMO/IKKβ complex formation), 174 nM and ~170 nM; in test [2], 231 ± 9.39 nM. The Kd on MBP-IKKβ (701–745) was found to be 15200 ± 4000 nM; on GST-NEMO (1–196), 14200 ± 1700 nM. Besides, the colony formation result with LoVo and RKO cells is reported as “colony formation suppression”. For the same compound, in test [3], the “inhibitory effect on tumor growth in LoVo/IKKβ mutant group compared with LoVo/wt” value is listed as “significantly weakened”.
